Experimental data as given in paper PMC9447987, “Long-term memory CD8^+ T cells specific for SARS-CoV-2 in individuals who received the BNT162b2 mRNA vaccine” (Nature Communications, 2022).
Like-named read-outs stand apart in the source and are kept apart here.

Columns and labels:
[1] = system: HLA-A*24:02-restricted CD8+ T cells; assay type: cell-based, human
HLA-A*24:02 = HLA-A*24:02 (Homo sapiens, UniProt P04439, D101N/D140Y/D185E/E176V/E190D/F33S/G103R/G107R/I119L/I121M/I306V/K335N/L105A/L180Q/L300P/N151K/N90K/Q86E/Q94H/R106L/R138H/R89G/T104I/T345S/V100E/W191G/Y123F); assay: HLA stabilization assay using RMA-S-A2402 cells; assay type: binding; conditions: RMA-S-A2402 cells, Suppl. Fig. 3b (for Fig. 4a, 4b); peptide(-) 14.8, 26 °C (Maximum) 32.7
[2] = convalescent donor C2, 45.290 weeks since PCR-confirmed diagnosis, […], peptide-pulsed C1R-A2402
[3] = convalescent donor C3, 2.430 weeks since PCR-confirmed diagnosis, […], peptide-pulsed C1R-A2402
[4] = convalescent donor C4, 35.000 weeks since PCR-confirmed diagnosis, […], peptide-pulsed C1R-A2402
[5] = convalescent donor C5, 41.430 weeks since PCR-confirmed diagnosis, […], peptide-pulsed C1R-A2402
[6] = convalescent donor C6, 20.000 weeks since PCR-confirmed diagnosis, […], peptide-pulsed C1R-A2402
[7] = convalescent donor C7, 21.710 weeks since PCR-confirmed diagnosis, […], peptide-pulsed C1R-A2402
[8] = convalescent donor C8, 47.860 weeks since PCR-confirmed diagnosis, […], peptide-pulsed C1R-A2402
[9] = convalescent donor C9, 21.860 weeks since PCR-confirmed diagnosis, […], peptide-pulsed C1R-A2402
[10] = convalescent donor C10, 24.570 weeks since PCR-confirmed diagnosis, […], peptide-pulsed C1R-A2402
[11] = convalescent donor C11, 24.290 weeks since PCR-confirmed diagnosis, […], peptide-pulsed C1R-A2402
[12] = vaccinated donor V1, 19.000 weeks since 2nd dose, […], C1R-A2402 pre-pulsed with 1 μM peptide
[13] = vaccinated donor V2, 9.570 weeks since 2nd dose, […], C1R-A2402 pre-pulsed with 1 μM peptide
[14] = vaccinated donor V3, 8.860 weeks since 2nd dose, […], C1R-A2402 pre-pulsed with 1 μM peptide
[15] = vaccinated donor V4, 10.430 weeks since 2nd dose, […], C1R-A2402 pre-pulsed with 1 μM peptide
[16] = vaccinated donor V5, 10.570 weeks since 2nd dose, […], C1R-A2402 pre-pulsed with 1 μM peptide
[17] = vaccinated donor V6, 9.570 weeks since 2nd dose, […], C1R-A2402 pre-pulsed with 1 μM peptide
[18] = vaccinated donor V7, 10.140 weeks since 2nd dose, […], C1R-A2402 pre-pulsed with 1 μM peptide
[19] = vaccinated donor V8, 9.860 weeks since 2nd dose, […], C1R-A2402 pre-pulsed with 1 μM peptide
[20] = vaccinated donor V9, 20.570 weeks since 2nd dose, […], C1R-A2402 pre-pulsed with 1 μM peptide
[21] = vaccinated donor V10, 2.000 weeks since 2nd dose, […], C1R-A2402 pre-pulsed with 1 μM peptide
[22] = vaccinated donor V11, 1.430 weeks since 2nd dose, […], C1R-A2402 pre-pulsed with 1 μM peptide
[23] = vaccinated donor V12, 1.000 weeks since 2nd dose, […], C1R-A2402 pre-pulsed with 1 μM peptide
[24] = vaccinated donor V13, 9.000 weeks since 2nd dose, […], C1R-A2402 pre-pulsed with 1 μM peptide
[25] = vaccinated donor V14, 2.000 weeks since 2nd dose, […], C1R-A2402 pre-pulsed with 1 μM peptide
[26] = vaccinated donor V15, 6.860 weeks since 2nd dose, […], C1R-A2402 pre-pulsed with 1 μM peptide
[27] = vaccinated donor V16, 8.860 weeks since 2nd dose, […], C1R-A2402 pre-pulsed with 1 μM peptide
[28] = vaccinated donor V17, 4.140 weeks since 2nd dose, […], C1R-A2402 pre-pulsed with 1 μM peptide

Sequence | IFNg-producing cells among CD8 T cells (%) [1, 2] [%] | IFNg-producing cells among CD8 T cells (%) [1, 3] [%] | IFNg-producing cells among CD8 T cells (%) [1, 4] [%] | IFNg-producing cells among CD8 T cells (%) [1, 5] [%] | IFNg-producing cells among CD8 T cells (%) [1, 6] [%] | IFNg-producing cells among CD8 T cells (%) [1, 7] [%] | IFNg-producing cells among CD8 T cells (%) [1, 8] [%] | IFNg-producing cells among CD8 T cells (%) [1, 9] [%] | IFNg-producing cells among CD8 T cells (%) [1, 10] [%] | IFNg-producing cells among CD8 T cells (%) [1, 11] [%] | IFNg-producing cells among CD8 T cells (%) [1, 12] [%] | IFNg-producing cells among CD8 T cells (%) [1, 13] [%] | IFNg-producing cells among CD8 T cells (%) [1, 14] [%] | IFNg-producing cells among CD8 T cells (%) [1, 15] [%] | IFNg-producing cells among CD8 T cells (%) [1, 16] [%] | IFNg-producing cells among CD8 T cells (%) [1, 17] [%] | IFNg-producing cells among CD8 T cells (%) [1, 18] [%] | IFNg-producing cells among CD8 T cells (%) [1, 19] [%] | IFNg-producing cells among CD8 T cells (%) [1, 20] [%] | IFNg-producing cells among CD8 T cells (%) [1, 21] [%] | also measured
AYSNNSIAI [S-AI9] | 0.000 | 0.037 | 0.000 | 0.000 | 0.000 | 0.180 | 0.160 | 0.510 | 0.000 | 0.000 | 0.918 | 0 | 0 | 0 | 0.54 | 0.014 | 0 | 0 | 0.488 | 0 | IFNg-producing cells among CD8 T cells (%) [1, 22]: 0.134%; IFNg-producing cells among CD8 T cells (%) [1, 23]: 0%; IFNg-producing cells among CD8 T cells (%) [1, 24]: 0.166%; IFNg-producing cells among CD8 T cells (%) [1, 25]: 0%; IFNg-producing cells among CD8 T cells (%) [1, 26]: 0%; IFNg-producing cells among CD8 T cells (%) [1, 27]: 0%; IFNg-producing cells among CD8 T cells (%) [1, 28]: 0%; MFI, HLA-A2402 (APC), representative staining (HLA-A*24:02): 36.2
EYVSQPFLM [S-EM9] | 0.455 | 0.097 | 0.355 | 0.063 | 0.000 | 0.160 | 0.480 | 0.000 | 0.650 | 0.000 | 0.75 | 0.88 | 0.063 | 0 | 0.271 | 0.032 | 0 | 0 | 0 | 0.23 | IFNg-producing cells among CD8 T cells (%) [1, 22]: 0.827%; IFNg-producing cells among CD8 T cells (%) [1, 23]: 0%; IFNg-producing cells among CD8 T cells (%) [1, 24]: 0.062%; IFNg-producing cells among CD8 T cells (%) [1, 25]: 0%; IFNg-producing cells among CD8 T cells (%) [1, 26]: 0%; IFNg-producing cells among CD8 T cells (%) [1, 27]: 0.187%; IFNg-producing cells among CD8 T cells (%) [1, 28]: 0%; MFI, HLA-A2402 (APC), representative staining (HLA-A*24:02): 38.7
GYLQPRTFLL [S-GL10] | 0.450 | 0.140 | 1.440 | 0.000 | 0.260 | 0.000 | 0.120 | 0.130 | 0.000 | 0.000 | 0 | 0 | 0.487 | 0.245 | 0.041 | 0 | 0 | 0.018 | 0.481 | 0.057 | Freq of responder (%) ([1]; of 17 vaccinated HLA-A*24:02+ individuals (Fig. 4b)): 5.9%; Resp: number of responders (individuals with epitope-specific CD8+ T cells) ([1]; of 17 vaccinated HLA-A*24:02+ individuals, […], 1 μM peptide): one; IFNg-producing cells among CD8 T cells (%) [1, 22]: 0.244%; IFNg-producing cells among CD8 T cells (%) [1, 23]: 1.194%; IFNg-producing cells among CD8 T cells (%) [1, 24]: 0%; IFNg-producing cells among CD8 T cells (%) [1, 25]: 0.774%; IFNg-producing cells among CD8 T cells (%) [1, 26]: 0.234%; IFNg-producing cells among CD8 T cells (%) [1, 27]: 0%; IFNg-producing cells among CD8 T cells (%) [1, 28]: 0%; MFI, HLA-A2402 (APC), representative staining (HLA-A*24:02): 15.2
IYQTSNFRV [S-IV9] | 0.000 | 0.090 | 0.000 | 0.000 | 0.340 | 0.260 | 0.060 | 0.000 | 0.160 | 0.000 | 0 | 0.595 | 0.717 | 0 | 0 | 0.265 | 0 | 0 | 0 | 0 | IFNg-producing cells among CD8 T cells (%) [1, 22]: 0.241%; IFNg-producing cells among CD8 T cells (%) [1, 23]: 0%; IFNg-producing cells among CD8 T cells (%) [1, 24]: 0%; IFNg-producing cells among CD8 T cells (%) [1, 25]: 0%; IFNg-producing cells among CD8 T cells (%) [1, 26]: 0.005%; IFNg-producing cells among CD8 T cells (%) [1, 27]: 0.261%; IFNg-producing cells among CD8 T cells (%) [1, 28]: 0%; MFI, HLA-A2402 (APC), representative staining (HLA-A*24:02): 33.2
